Reference: paper PMC9848257, “Design and synthesis of novel rigid dibenzo[b,f]azepines through ring closure technique as promising anticancer candidates against leukaemia and acting as selective topoisomerase II inhibitors and DNA intercalators” (Journal of Enzyme Inhibition and Medicinal Chemistry, 2023)

Legend:
Assay type in all cases: cell-based
OVCAR-3 = experiment: NCI-60 one-dose screen, OVCAR-3; details: Homo sapiens; OVCAR-3, ovarian cancer; single dose 10 μM; read-out: Growth inhibition %
Description: (§1) Anti-proliferative effects of the counterparts 4a–g and 5a–g were screened against 60 human cancer cell lines, following the Developmental Therapeutics Program protocol, National Cancer Institute[35].
(§2) The anti-tumour activity of the fourteen synthesised congeners was investigated at the NCI against a panel of 60 cancer cell lines (NCI-60 Cell One-Dose Screen). The tested dibenzo[b,f]azepine derivatives were screened at a single dose level (10 μM), Table 1.

HS 578 T = experiment: NCI-60 one-dose screen, HS 578 T; details: Homo sapiens, breast cancer, single dose 10 μM, read-out: Growth inhibition %
Description: as §1, §2

SF-539 = experiment: NCI-60 one-dose screen, SF-539; details: Homo sapiens; SF-539, CNS cancer; single dose 10 μM; read-out: Growth inhibition %
Description: as §1, §2

MDA-MB-231-ATCC = experiment: NCI-60 one-dose screen, MDA-MB-231-ATCC; details: Homo sapiens, breast cancer, single dose 10 μM, read-out: Growth inhibition %
Description: as §1, §2

M14 = experiment: NCI-60 one-dose screen, M14; details: Homo sapiens; M14, melanoma; single dose 10 μM; read-out: Growth inhibition %
Description: as §1, §2

UACC-62 = experiment: NCI-60 one-dose screen, UACC-62; details: Homo sapiens; UACC-62, melanoma; single dose 10 μM; read-out: Growth inhibition %
Description: as §1, §2

UO-31 = experiment: NCI-60 one-dose screen, UO-31; details: Homo sapiens; UO-31, renal cancer; single dose 10 μM; read-out: Growth inhibition %
Description: as §1, §2

RXF 393 = experiment: NCI-60 one-dose screen, RXF 393; details: Homo sapiens; RXF 393, renal cancer; single dose 10 μM; read-out: Growth inhibition %
Description: as §1, §2

UACC-257 = experiment: NCI-60 one-dose screen, UACC-257; details: Homo sapiens; UACC-257, melanoma; single dose 10 μM; read-out: Growth inhibition %
Description: as §1, §2

SR = experiment: NCI-60 one-dose screen, SR; details: Homo sapiens, leukaemia, single dose 10 μM, read-out: Growth inhibition %
Description: as §1, §2

SK-MEL-28 = experiment: NCI-60 one-dose screen, SK-MEL-28; details: Homo sapiens; SK-MEL-28, melanoma; single dose 10 μM; read-out: Growth inhibition %
Description: as §1, §2

NCI/ADR-RES = experiment: NCI-60 one-dose screen, NCI/ADR-RES; details: Homo sapiens, ovarian cancer, single dose 10 μM, read-out: Growth inhibition %
Description: as §1, §2

OVCAR-4 = experiment: NCI-60 one-dose screen, OVCAR-4; details: Homo sapiens; OVCAR-4, ovarian cancer; single dose 10 μM; read-out: Growth inhibition %
Description: as §1, §2

PC-3 = experiment: NCI-60 one-dose screen, PC-3; details: Homo sapiens; PC-3, prostate cancer; single dose 10 μM; read-out: Growth inhibition %
Description: as §1, §2

MDA-MB-435 = experiment: NCI-60 one-dose screen, MDA-MB-435; details: Homo sapiens; MDA-MB-435, melanoma; single dose 10 μM; read-out: Growth inhibition %
Description: as §1, §2

CAKI-1 = experiment: NCI-60 one-dose screen, CAKI-1; details: Homo sapiens; CAKI-1, renal cancer; single dose 10 μM; read-out: Growth inhibition %
Description: as §1, §2

U251 = experiment: NCI-60 one-dose screen, U251; details: Homo sapiens, U-251; U251, CNS cancer; single dose 10 μM; read-out: Growth inhibition %
Description: as §1, §2

DU-145 = experiment: NCI-60 one-dose screen, DU-145; details: Homo sapiens; DU-145, prostate cancer; single dose 10 μM; read-out: Growth inhibition %
Description: as §1, §2

SW-620 = experiment: NCI-60 one-dose screen, SW-620; details: Homo sapiens; SW-620, colon cancer; single dose 10 μM; read-out: Growth inhibition %
Description: as §1, §2

EKVX = experiment: NCI-60 one-dose screen, EKVX; details: Homo sapiens, non-small cell lung cancer, single dose 10 μM, read-out: Growth inhibition %
Description: as §1, §2

HCC-2998 = experiment: NCI-60 one-dose screen, HCC-2998; details: Homo sapiens; HCC-2998, colon cancer; single dose 10 μM; read-out: Growth inhibition %
Description: as §1, §2

NCI-H23 = experiment: NCI-60 one-dose screen, NCI-H23; details: Homo sapiens; NCI-H23, non-small cell lung cancer; single dose 10 μM; read-out: Growth inhibition %
Description: as §1, §2

CCRF-CEM = experiment: NCI-60 one-dose screen, CCRF-CEM; details: Homo sapiens, leukaemia, single dose 10 μM, read-out: Growth inhibition %
Description: as §1, §2

786-0 = experiment: NCI-60 one-dose screen, 786-0; details: Homo sapiens; 786-0, renal cancer; single dose 10 μM; read-out: Growth inhibition %
Description: as §1, §2

HT29 = experiment: NCI-60 one-dose screen, HT29; details: Homo sapiens, HT-29; HT29, colon cancer; single dose 10 μM; read-out: Growth inhibition %
Description: as §1, §2

COLO 205 = experiment: NCI-60 one-dose screen, COLO 205; details: Homo sapiens; COLO 205, colon cancer; single dose 10 μM; read-out: Growth inhibition %
Description: as §1, §2

MALME-3M = experiment: NCI-60 one-dose screen, MALME-3M; details: Homo sapiens, melanoma, single dose 10 μM, read-out: Growth inhibition %
Description: as §1, §2

SF-268 = experiment: NCI-60 one-dose screen, SF-268; details: Homo sapiens; SF-268, CNS cancer; single dose 10 μM; read-out: Growth inhibition %
Description: as §1, §2

HOP-62 = experiment: NCI-60 one-dose screen, HOP-62; details: Homo sapiens; HOP-62, non-small cell lung cancer; single dose 10 μM; read-out: Growth inhibition %
Description: as §1, §2

T-47D = experiment: NCI-60 one-dose screen, T-47D; details: Homo sapiens, T47D, breast cancer, single dose 10 μM, read-out: Growth inhibition %
Description: as §1, §2

HCT-116 = experiment: NCI-60 one-dose screen, HCT-116; details: Homo sapiens; HCT-116, colon cancer; single dose 10 μM; read-out: Growth inhibition %
Description: as §1, §2

SK-MEL-5 = experiment: NCI-60 one-dose screen, SK-MEL-5; details: Homo sapiens; SK-MEL-5, melanoma; single dose 10 μM; read-out: Growth inhibition %
Description: as §1, §2

NCI-H226 = experiment: NCI-60 one-dose screen, NCI-H226; details: Homo sapiens; NCI-H226, non-small cell lung cancer; single dose 10 μM; read-out: Growth inhibition %
Description: as §1, §2

NCI-H322M = experiment: NCI-60 one-dose screen, NCI-H322M; details: Homo sapiens, non-small cell lung cancer, single dose 10 μM, read-out: Growth inhibition %
Description: as §1, §2

Compound	inhibition at 10 µM (OVCAR-3)	inhibition at 10 µM (HS 578 T)	inhibition at 10 µM (SF-539)	inhibition at 10 µM (MDA-MB-231-ATCC)	inhibition at 10 µM (M14)	inhibition at 10 µM (UACC-62)	inhibition at 10 µM (UO-31)	inhibition at 10 µM (RXF 393)	inhibition at 10 µM (UACC-257)	inhibition at 10 µM (SR)	inhibition at 10 µM (SK-MEL-28)	inhibition at 10 µM (NCI/ADR-RES)	inhibition at 10 µM (OVCAR-4)	inhibition at 10 µM (PC-3)	inhibition at 10 µM (MDA-MB-435)	inhibition at 10 µM (CAKI-1)	inhibition at 10 µM (U251)	inhibition at 10 µM (DU-145)	inhibition at 10 µM (SW-620)	inhibition at 10 µM (EKVX)	other results
O=C(NNC(=O)N1c2ccccc2C=Cc2ccccc21)c1ccc([N+](=O)[O-])cc1 [Compound 4e, N′-(4-Nitrobenzoyl)-5H-dibenzo[b,f]azepine-5-carbohydrazide]	< 10%	< 10%	< 10%	< 10%	< 10%	< 10%	< 10%	< 10%	< 10%	< 10%	< 10%	< 10%	< 10%	< 10%	< 10%	< 10%	< 10%	< 10%	< 10%	< 10%	inhibition at 10 µM (HCC-2998): < 10%; inhibition at 10 µM (NCI-H23): < 10%; inhibition at 10 µM (CCRF-CEM): < 10%; inhibition at 10 µM (786-0): < 10%; inhibition at 10 µM (HT29): < 10%; inhibition at 10 µM (COLO 205): < 10%; inhibition at 10 µM (MALME-3M): < 10%; inhibition at 10 µM (SF-268): < 10%; inhibition at 10 µM (HOP-62): < 10%; inhibition at 10 µM (T-47D): < 10%; inhibition at 10 µM (HCT-116): < 10%; inhibition at 10 µM (SK-MEL-5): < 10%; inhibition at 10 µM (NCI-H226): < 10%; inhibition at 10 µM (NCI-H322M): < 10%
O=C(NNC(=O)N1c2ccccc2C=Cc2ccccc21)c1ccc2ccccc2c1 [Compound 4f, N′-(2-Naphthoyl)-5H-dibenzo[b,f]azepine-5-carbohydrazide]	< 10%	< 10%	< 10%	< 10%	< 10%	18.9%	12%	< 10%	< 10%	12.8%	< 10%	< 10%	< 10%	25.1%	< 10%	< 10%	< 10%	< 10%	< 10%	11%	inhibition at 10 µM (HCC-2998): < 10%; inhibition at 10 µM (NCI-H23): < 10%; inhibition at 10 µM (CCRF-CEM): < 10%; inhibition at 10 µM (786-0): < 10%; inhibition at 10 µM (HT29): 11.4%; inhibition at 10 µM (COLO 205): < 10%; inhibition at 10 µM (MALME-3M): < 10%; inhibition at 10 µM (SF-268): < 10%; inhibition at 10 µM (HOP-62): < 10%; inhibition at 10 µM (T-47D): 12.6%; inhibition at 10 µM (HCT-116): < 10%; inhibition at 10 µM (SK-MEL-5): < 10%; inhibition at 10 µM (NCI-H226): < 10%; inhibition at 10 µM (NCI-H322M): < 10%
